The source of these data is patent US20160051704A1, “MOLECULAR IMAGING PROBES FOR LUNG CANCER INTRAOPERATIVE GUIDANCE” (H. Lee Moffitt Cancer Center and Research Institute, Inc., priority 2013, published 2016).

Data set [1] relates to DMS-53 (δOR+) tumor relative to H1299 (δOR−) tumor. The data set is described as follows: In vivo fluorescence imaging, bilateral subcutaneous lung cancer xenografts with endogenous δOR expression. The note with it: for tumor selectivity in fluorescence image: 40 nmol/kg, 24 h post-administration. More on the design: species or system mice. The procedure: Mice were subcutaneously injected with H1299 (δOR−) (12 million cells of 100 uL per injection) and DMS-53 (δOR+) (20 million cells at 100 uL per injection) cells in the left and right flanks, respectively. Tumors were grown for 3 weeks after subcutaneous injection.
A dose determination assay was performed to find the optimal concentration of Dmt-Tic-IR800 for further experiments. A higher concentration of the imaging agent in these experiments was needed due to the lower receptor number. Based on previous work with fluorescent imaging agents targeting different receptors in endogenous expressing cell lines, the inventors selected concentrations of 40 nmol/kg, 80 nmol/kg, and 160 nmol/kg. (Huynh A S, Chung W J, Cho H I, Moberg V E, Celis E, Morse D L, Vagner J. Novel Toll-like Receptor 2 Ligands for Targeted Pancreatic Cancer Imaging and Immunotherapy. J Med Chem. 2012; 55(22):9751-62) Fluorescence imaging was performed using the IVIS200 imaging system at various time points following intravenous administration of Dmt-Tic-IR800. For the bilateral flank subcutaneous xenograft model using endogenously expressing cells the optimal dose was 40 nmol/kg.
Fluorescence imaging of mice bearing H1299 (δOR−) cells in the left flank and DMS-53 (δOR+) cells in the right flank was performed using the Optix MX3 imaging system and a 40 nmol/kg dose of Dmt-Tic-IR800. […] FIG. 28 is a series of in vivo fluorescence images taken at different time points of mice bearing the xenograft tumors of lung cancer cell lines with positive endogenous expression (DMS-53) and non-expression (H1299). […] FIG. 30 is a series of graphs depicting the quantified values from in vivo imaging of the lung cancer xenograft tumors using the Optix MX-3 imaging instrument by ART. FIG. 31 is a series of representative images depicting the ex vivo fluorescence imaging of excised positive tumor, negative tumor, liver, lungs, kidneys and GI tract following intravenous administration of the Dmt-Tic-IR800 agent. […]
For dose determination assays on the Xenogen IVIS-200, images were analyzed using Living Image Software (v3.2). […]

In data set [2] the test system is HCT-116/δOR (δOR+) tumor relative to HCT-116 (δOR−) tumor. It counts as in vivo, mice. As for the experimental part: (§1) The inventors evaluated a synthetic peptide δ-opioid receptor (δOR) antagonist Dmt-Tic (FIG. 8) conjugated to two different fluorescent dyes, Cy5 and IR800CW, as further discussed below. The pharmacokinetics (PK) of Dmt-Tic-Cy5 was evaluated in a subcutaneous xenograft model using HCT-116 cells (δOR−) and HCT-116 cells that were engineered to overexpress the δOR (δOR+). Tumor uptake of Dmt-Tic-Cy5 was also studied by intravital fluorescence microscopy using a dorsal skin-fold window chamber tumor xenograft model.
For PK experiments, mice were injected with 4.5 nmol/kg Dmt-Tic-Cy5 i.v. and images acquired at various time points from 0-168 h ([…]). Graphs 9B and 9C depict the mean fluorescent signal obtained from the δOR− tumors and δOR+ tumors over a time course of 0-168 h. Graph […] depicts the mean fold of enhancement (δOR+ tumor signal/δOR− tumor signal) over time. The tumor signals were quantified, averaged (n≧3 for each time point), and plotted over time. The graphs 9B and 9C show maximum probe uptake in the δOR+ tumor at 3 h. FIG. 9D depicts the maximum signal fold of enhancement (27±9 s.d.) at 18 h in δOR+ relative to δOR− tumors.
Mice then were tail vein injected with 10 μg of ligand 1 and images were acquired at different times post-injection using a VersArray 1300B cooled CCD camera, a filtered fiberoptic light source and a tunable emission filter (CRI, Inc.). After 15 min post-injection, the fluorescence intensity maps indicated systemic presence of the compound with high intensity throughout the animal (not shown). […] Histograms were generated for each ROI, and mean fluorescence intensities were determined for each time point. […]
Initial experiments were performed using the HCT-116 parental cell line and HCT-116/δOR engineered cells in a bilateral flank subcutaneous xenograft model in mice. […] Mice were injected intravenously with the designated concentrations of Dmt-Tic-IR800 and fluorescence imaging was performed at various time points post-injection using the IVIS200 imaging system. […]

The subject of data set [3] is DMS-53 luc+ (DOR+) orthotopic lung tumor. The data set is described as follows: Orthotopic model of lung cancer, fluorescence molecular tomography. It counts as in vivo, mice. The note with it: 40 nmol/kg i.v.; 0 to 48 hours. As for the experimental part:
In the orthotopic model of lung cancer, the mice undergo a minor surgical procedure during which DMS-53 luc+ (DOR+) cells are injected directly in the left lung. The growth of the tumors is monitored using bioluminescence imaging (FIG. 33A). The PK of DORL-800 was studied in this model by injecting mice intravenously with DORL-800 (40 nmol/kg) and acquiring images at various time points from 0 to 48 hours using fluorescence molecular tomography (FIG. 33B). […] FIG. 34A depicts the structure of DORL-800. FIGS. 34B and C depict in vivo fluorescence imaging of endogenously expressing subcutaneous lung cancer xenograft tumors following administration of DORL-800. The presence of tumor was confirmed by computed tomography (CT) and histology. DORL-800 was studied for use in intraoperative guidance. FIG. 35 is an image of a SCID Hairless Outbred mouse (SHO) four weeks after DMS-53 luc+ (DOR+) cells were injected directly into the lung.

For data set [4], the target named is T1, delta opioid receptor (δOR) (Homo sapiens, UniProt P41143).
T1 construct: pcDNA-δOR15 vector containing a truncated δOR lacking the final 15 C-terminal amino acids; expressed in transfected cells
T1 sequence (P41143 1-357 limits assumed): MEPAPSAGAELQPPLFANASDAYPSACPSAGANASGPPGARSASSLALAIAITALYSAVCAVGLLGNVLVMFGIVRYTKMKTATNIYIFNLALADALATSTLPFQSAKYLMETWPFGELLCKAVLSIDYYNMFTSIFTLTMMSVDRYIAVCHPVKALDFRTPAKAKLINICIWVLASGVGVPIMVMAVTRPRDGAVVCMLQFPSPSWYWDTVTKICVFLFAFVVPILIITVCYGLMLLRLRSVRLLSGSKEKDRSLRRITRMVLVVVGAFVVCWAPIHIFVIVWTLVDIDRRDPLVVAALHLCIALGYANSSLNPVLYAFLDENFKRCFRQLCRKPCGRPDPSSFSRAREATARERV
The data set is described as follows: Lanthanide time-resolved fluorescence (TRF) competitive binding assay on HCT-116/δOR whole cells against Eu-DTPA-DPLCE. The note with it: HCT-116 cells engineered to express δOR; competed ligand Eu-labeled DPLCE; read-out: Ki (δOR binding affinity).
Description: The inventors have previously generated an engineered cell line that stably overexpresses the δO R based on the colorectal cancer cell line HCT-116. […] For the LTRF competition binding assays with Dmt-Tic-IR800, the inventors used the engineered HCT-116/δOR cell line since it has a high number of receptors on the cell surface.
To determine binding affinity the inventors used a lanthanide time-resolved fluorescence (LTRF) competitive binding assay as described previously.
For the competitive binding assays, HCT-116/δOR cells were plated in black wall/white bottom 96-well plates (Perkin Elmer, Cat. #6005060) at a density of 20,000 cells per well and were allowed to grow for 3 days.
On the day of the experiment, media were aspirated from all wells and then the cells were rinsed with phosphate buffered saline (PBS) (100 μL/well). […] Ligands were diluted in binding assay buffer (Modified Eagles medium [MEM] (Gibco, Cat. #61100-087), 1 mM 1,10-phenanthroline, 200 mg/L bacitracin, 0.5 mg/L leupeptin, 26 mM NaHCO3, 25 mM HEPES, 0.2% w/v BSA) and samples were tested in octuplicate.
Cells were incubated in the presence of ligands for 1 h at 37° C. and 5% CO2. Following the incubation, cells were washed three times with wash buffer (50 mM Tris-HCl, 0.2% w/v BSA, 30 mM NaCl) (200 μL/well).

Data set [5] is described as follows: In vivo pharmacokinetic (PK) and biodistribution (BD) profiles of fluorescent conjugates.
The conditions of data set [6]: literature statement; cited from earlier work.
For data set [7], the system named is HCT-116/RFP (δOR negative) and HCT-116/δOR tumors. The data set is described as follows: Intravital fluorescence microscopy, dorsal skin-fold window chamber tumor xenograft. It counts as in vivo, mice. As to conditions: 45 nmol/kg i.v.; HCT-116/RFP (δOR negative) tumor; post tail vein injection. As for the experimental part:
as §1
Mice containing dorsal skin-fold window chamber tumor xenografts were injected with 45 nmol/kg Dmt-Tic-Cy5 i.v. (FIG. 12) Images were acquired continuously for 15 minutes post-injection and at various time points after. […] Dmt-Tic-Cy5 is taken up and extravasates from the rat GFP vessels within seconds post tail vein injection (top). Dmt-Tic-Cy5 is cleared by 33 minutes post tail vein injection (bottom). Light gray represents the RFP signal from the tumor cells, medium gray represents the GFP signal from the rat microvessels, and dark gray is the Cy5 signal from the ligand. […] Shown are the Cy5 signal from the ligand in dark gray (left images) and overlays of the Cy5 signal and white light channels (right images) pre-injection and 25 minutes, 45 minutes, 60 minutes, 1 hour 25 minutes, and 24 hours post-injection.

A further data set concerns the target T2, δOR (Mus musculus, UniProt P32300).
T2 construct: from tissue; host or cells: mouse isolated vas deferens
The data set is described as follows: Mouse-isolated vas deferens (MVD) assay against δ-agonist DPDPE. As to conditions: n=8, read-out: Ke (inhibitory potency). From the text: (Kramer, T. H.; Davis, P.; Hruby, V. J.; Burks, T. F.; Porreca, F. J. Pharmacol. Exp. Ther. 1993, 266, 577-584)

In the next data set the target is δ-opioid receptor. The note with it: literature value; cited from earlier work.

T2 sequence (P32300 whole entry): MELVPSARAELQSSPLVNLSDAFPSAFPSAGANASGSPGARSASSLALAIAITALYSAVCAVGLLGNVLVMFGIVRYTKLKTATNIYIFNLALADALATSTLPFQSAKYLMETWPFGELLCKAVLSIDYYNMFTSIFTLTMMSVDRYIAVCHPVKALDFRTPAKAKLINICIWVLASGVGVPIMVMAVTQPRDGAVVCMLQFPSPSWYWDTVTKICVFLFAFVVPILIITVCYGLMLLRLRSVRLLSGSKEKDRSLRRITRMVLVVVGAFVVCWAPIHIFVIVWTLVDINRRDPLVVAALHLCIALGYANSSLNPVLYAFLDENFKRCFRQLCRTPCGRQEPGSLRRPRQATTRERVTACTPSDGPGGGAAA

On to `Cc1cc(O)cc(C)c1C[C@H](N)C(=O)N1Cc2ccccc2C[C@H]1C(=O)N[C@@H](CCCCNC(=O)CCSC1CC(=O)N(CCNC(=O)CCCCC[N+]2=C(/C=C/C3=C(Oc4ccc(S(=O)(=O)O)cc4)C(=C/C=C4/N(CCCCS(=O)(=O)O)c5ccc(S(=O)(=O)O)cc5C4(C)C)/CCC3)C(C)(C)c3cc(S(=O)(=O)[O-])ccc32)C1=O)C(=O)O` (stereo partly drawn) [Dmt-Tic-IR800], for which the “fold enhancement of the positive tumor (DMS-53) relative to the negative tumor (H1299)” value in data set [1] (40 nmol/kg i.v., 24 hours post-injection, Optix MX3, n=4) is given as ~4 fold. Moreover, the “tumor selectivity in fluorescence image” value in [1] is “selective for the δOR+ tumor”; in data set [1] (listed as DORL-800), “selective for the DOR+ tumor”; in data set [2] (10 nmol/kg, 24 h post-administration), “selective for the δOR+ tumor”. The “fold enhancement of the positive tumor (HCT-116/δOR) relative to the negative tumor (HCT-116)” value in data set [2] (10 nmol/kg i.v., 24 hours post-injection, Optix MX3, n=4) was ~7 fold. In addition, the “accumulation in orthotopic tumor” value in data set [3] is “accumulated specifically in the tumor”. Besides, the inhibition constant (Ki) in [4] amounted to 1.43 ± 0.24 nM. Besides, the blood-brain barrier passage entry in data set [5] is listed as “does not cross the blood-brain barrier”.

Take `CC1(C)C(/C=C/C2=C(Oc3ccc(S(=O)(=O)O)cc3)C(=C/C=C3/N(CCCCS(=O)(=O)O)c4ccc(S(=O)(=O)[O-])cc4C3(C)C)/CCC2)=[N+](CCCCCC(=O)O)c2ccc(S(=O)(=O)O)cc21` [Licor IR800CW]: in data set [6], the toxicity result was “non-toxic”.

`CC[N+]1=C(C=CC=CC=C2N(CCCCCC(=O)NCCN3C(=O)CC(SCCC(=O)NCCCC[C@H](NC(=O)[C@@H]4Cc5ccccc5CN4C(=O)[C@@H](N)Cc4c(C)cc(O)cc4C)C(=O)O)C3=O)c3ccc(S(=O)(=O)O)cc3C2(C)C)C(C)(C)c2cc(S(=O)(=O)[O-])ccc21` (stereo partly drawn) [ligand 1, Dmt-Tic-Lys(Cy5)-OH]: in [2] (4.5 nmol/kg i.v., time course 0-168 h), the “time of maximum probe uptake in the δOR+ tumor” value is 3 h. In addition, the “time by which probe is cleared from δOR negative tumor” value in data set [7] is ≤ 33 min. In addition, the Ki in [4] amounted to 3 nM. The blood-brain barrier passage entry in data set [5] is reported as “does not cross the blood-brain barrier”. On δOR, the Kb is 0.037 nM.

Turning to Dmt-Tic-Lys(Ac)-OH, the inhibition constant (Ki) at δ-opioid receptor is 0.047 nM.

By Ki is commonly meant a measure of affinity in units of concentration, obtained from inhibition or displacement.
